Laboratory results reported in patent US6916905B2, “Dmt-Tic di-and tri-peptidic derivatives and related compositions and methods of use” (The United States of America as represented by the …, priority 2000, dated 2005).
Entries after “also recorded” stand apart in the source; their conditions may differ. Where two headings read alike, the source gives them in different places. Marks after values point to notes of the source that are not given here. Non-standard residues stand in square brackets, D forms with d. Residues, ends and D or L forms follow the SMILES beside them. *: point of attachment. Dmt = Cc1cc(O)cc(C)c1C[C@H](N)C(=O)O; Tic = O=C(O)[C@@H]1Cc2ccccc2CN1; NHPh = c1ccc(N*)cc1

Tests used:
δ receptors [1] = molecular target: T1, δ receptors (Mus musculus, UniProt P32300); set-up: A single MVD was suspended in 4 ml modified Kreb's solution; from tissue; host or cells: mouse vas deferens; conditions: Balboni et al. (2000); cited from earlier work
μ receptors [2] = molecular target: T2, μ receptors (Rattus norvegicus, UniProt P33535); assay: Radio-receptor competition assay, rat brain synaptosomes, [3H]DAGO (Example 74); type: binding; conditions: for Ki: rat brain P2 synaptosomes, [3H]DAGO
T2 construct: assayed with a rat brain synaptosomal preparation (P2); from tissue; host or cells: rat brain P2 synaptosomes
Method: (§1) After 120 min incubation at room temperature (23-24° C.), the samples were rapidly filtered through Whatman GF/C glass fiber filers and washed three times with 2 ml ice-cold 0.05 M Tris, pH 7.4-7.5, containing 0.1% BSA. Presoaking filters in 0.1% polyethylenimine is only required in assays with peptides carrying an overall positive charge, such as dynorphin or nociceptin (Guerrini et al., J. Med. Chem., 40: 1789-1793 (1997)). Non-specific binding was determined using 2 μM unlabeled DPDPE or DAGO for δ or μ assays, respectively. The Ki data, determined according to Cheng and Prusoff (Cheng et al., Biochem. Pharmacol., 22: 3099-3108 (1973)), represent the means±SE from 3 or more independent assays using at least 3 different synaptosome preparations and testing the analogues with 5-8 graded dosages over 2-3 orders of magnitude in concentration.

μ receptors [3] = molecular target: T3, μ receptors (Cavia porcellus, UniProt P97266); conditions: Balboni et al. (2000); read-out: μ agonist activity IC50, published data; cited from earlier work
δ receptors [4] = molecular target: T4, δ receptors (Rattus norvegicus, UniProt P33533); assay: Radio-receptor competition assay, rat brain synaptosomes, [3H]DPDPE (Example 74); type: binding; conditions: for Ki: rat brain P2 synaptosomes, [3H]DPDPE, read-out: Receptor affinity (nM) Kiδ; for μ/δ: selectivity Kiμ/Kiδ
T4 construct: assayed with a rat brain synaptosomal preparation (P2); from tissue; host or cells: rat brain P2 synaptosomes
Method: as §1

δ receptors [5] = molecular target: T1, δ receptors; assay: MVD functional pharmacological bioassay (Example 75); set-up: A single MVD was suspended in 4 ml modified Kreb's solution; from tissue; host or cells: mouse vas deferens
δ receptors [6] = molecular target: T1, δ receptors; conditions: for MVD Ke: δ antagonism, Ke = antilog of pA2
Method: The functional bioactivity of the present inventive compounds was assessed using standard functional bioassays of δ and μ activity in MVD and GPI (Salvadori et al. (1995), supra; and Salvadori et al., J. Med. Chem. 36: 3748-3756 (1993)). […] Dose-response curves were obtained (Salvadori et al. (1995), supra) for both tissues. […] Data were derived from at least four independent tissue samples and dose-response curves from which the pA2 values were determined (Salvadori et al. (1997), supra) according to Arunlakshana and Schild (Br. J. Pharmacol. 14: 48-58 (1959)).

δ-opioid receptors [7] = molecular target: T5, δ-opioid receptors (Rattus norvegicus, UniProt P33533); conditions: selectivity; Kiδ from [3H]DPDPE; cells marked a/b: Salvadori et al. (1995), (1997); cited from earlier work
T5 construct: assayed with a rat brain synaptosomal preparation (P2); from tissue; host or cells: rat brain P2 synaptosomes

μ-opioid receptors = molecular target: T6, μ-opioid receptors (Rattus norvegicus, UniProt P33535); assay: Rat brain synaptosome (P2) binding, [3H]DAGO (Example 47); conditions: rat brain synaptosomes (P2); mean ± SEM, n in parentheses; read-out: Kiμ (nM) [^3H]DAGO
T6 construct: assayed with a rat brain synaptosomal preparation (P2); from tissue; host or cells: rat brain P2 synaptosomes

μ receptors [8] = molecular target: T3, μ receptors; assay: GPI functional pharmacological bioassay (Example 75); set-up: species or system guinea pig; conditions: μ agonism
Method: The in vitro pharmacological assays used a single MVD for δ receptors and a 2- to 3-cm segment of GPI for μ receptors with each suspended in 20 ml organ baths containing balanced salt solutions in a physiological buffer (Salvadori et al., Mol. Med., 1: 678-689 (1995)). […] Data were obtained from 4 independent assays and tissue samples. Agonism is expressed as the IC50 (nM) value and antagonism as pA2 (Labarre et al., Eur. J. Pharm., 406: R1-R3 92000)).

hMDR-1 = hMDR-1 (Homo sapiens, UniProt P08183); assay: Calcein AM assay for Pgp in hMDR-1 transfected G-185 fibroblasts (Example 49); conditions: calcein fluorescence
Method: Stably transfected G-185 fibroblasts containing hMDR-1 and NIH 3T3 cell lines were grown to confluent monolayers in DMEM containing 4.5 g glucose/1, 10% fetal calf serum, L-glutamine, penicillin (50 units/ml), streptomycin (50 μg/ml) and 1 mM sodium pyruvate in 5% CO2 at 37° C. G-185 cells were maintained in […] colchicine.
The assay for Pgp is based on the diffusion of non-fluorescent calcein AM across the cell membrane. Calcein AM is then hydrolyzed and accumulates as the fluorescent calcein. In transfected cells expressing excess hMDR-1, Pgp extrudes calcein AM from the cell before hydrolysis occurs; inhibition of hMDR-1 results in the accumulation of intracellular calcein. Transfected G-185 cells and the NIH 3T3 cells were analyzed in triplicate using seven graded dosages of verapamil or the opioid peptides in 96-well plates. Cells (2.5×10^6/well) were incubated in 100 μl culture medium for 15 min at 37° C. and 50 μl of 1 μM calcein AM in PBS, plus 50 μl of verapamil or one of the present inventive compounds in PBS, or 100 μl of PBS alone (control) were added. Cells were mixed and incubated for 15 min at 37° C., then centrifuged for 5 min at 2,000×g, and then washed three times in 200 μl PBS. Cell pellets were resuspended in 200 μl PBS and transferred to white Microfluor Plates (Nunc, Copenhagen, Denmark) in order to measure calcein-specific fluorescence (494 nm absorption; 517 nm emission). Internal controls were carried out with each experiment using verapamil and PBS in order to compare the consistency between cell preparations. Means±SE (error bars) were determined and plotted using Prism™ (GraphPad, San Diego, Calif.).

δ-opioid receptors [9] = molecular target: T5, δ-opioid receptors; assay: Rat brain synaptosome (P2) binding, δ antagonist [3H]N,N(CH3)2-Dmt-Tic-OH (Example 47); conditions: selectivity; Kiδ from antagonist radioligand [3H]N,N(CH3)2-Dmt-Tic-OH
Method: (§2) Briefly, the agonists [^3H]DPDPE (30-60 Ci/mmol, NEN-DuPont) and [^3H]DAGO (30-60 Ci/mmol, Amersham) were used to label δ and μ sites, respectively, under saturation binding conditions (2 hrs at 22° C.). Excess unlabeled peptide (2 μM) established non-specific binding levels and the labeled membranes were rapidly filtered on Whatman GF/C glass fibre filters, thoroughly washed, dried and measured for radioactivity using CytoScint (ICN, Irvine, Calif.). […] The affinity constants (Ki) were calculated according to Cheng and Prusoff (Biochem. Pharmacol. 22: 3099-3108 (1973)).

δ-opioid receptors [10] = molecular target: T5, δ-opioid receptors; assay: Rat brain synaptosome (P2) binding, agonist [3H]DPDPE (Example 47); conditions: rat brain synaptosomes (P2); mean ± SEM, n in parentheses; read-out: Kiδ(nM) [^3H]DPDPE
Method: as §2

δ-opioid receptors [11] = molecular target: T5, δ-opioid receptors; conditions: radioligand; Kertesz et al. (1998); cited from earlier work
[12] = read-out: Receptor affinity (nM) Kiμ

T1 sequence (P32300 whole entry): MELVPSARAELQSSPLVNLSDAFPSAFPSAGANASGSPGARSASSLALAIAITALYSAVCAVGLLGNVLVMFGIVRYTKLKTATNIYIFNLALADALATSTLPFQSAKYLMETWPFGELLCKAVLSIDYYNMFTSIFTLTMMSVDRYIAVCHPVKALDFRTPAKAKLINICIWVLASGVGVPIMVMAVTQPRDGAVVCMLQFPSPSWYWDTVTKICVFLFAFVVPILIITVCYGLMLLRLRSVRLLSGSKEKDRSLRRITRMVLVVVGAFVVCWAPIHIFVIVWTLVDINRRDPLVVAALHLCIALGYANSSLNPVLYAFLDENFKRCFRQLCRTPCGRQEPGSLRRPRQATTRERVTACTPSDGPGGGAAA
T5 sequence (P33533 whole entry): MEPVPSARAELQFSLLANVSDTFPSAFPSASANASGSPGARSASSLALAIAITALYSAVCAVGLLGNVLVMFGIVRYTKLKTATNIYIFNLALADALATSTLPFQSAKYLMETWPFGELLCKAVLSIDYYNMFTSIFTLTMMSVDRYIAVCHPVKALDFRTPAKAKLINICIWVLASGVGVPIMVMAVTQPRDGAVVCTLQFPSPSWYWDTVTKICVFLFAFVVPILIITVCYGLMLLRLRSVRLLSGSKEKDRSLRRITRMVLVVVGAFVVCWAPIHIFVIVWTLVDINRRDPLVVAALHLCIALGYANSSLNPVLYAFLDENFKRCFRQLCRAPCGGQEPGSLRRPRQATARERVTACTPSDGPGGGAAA
T4 sequence (P33533 whole entry): as above
T6 sequence (P33535 whole entry): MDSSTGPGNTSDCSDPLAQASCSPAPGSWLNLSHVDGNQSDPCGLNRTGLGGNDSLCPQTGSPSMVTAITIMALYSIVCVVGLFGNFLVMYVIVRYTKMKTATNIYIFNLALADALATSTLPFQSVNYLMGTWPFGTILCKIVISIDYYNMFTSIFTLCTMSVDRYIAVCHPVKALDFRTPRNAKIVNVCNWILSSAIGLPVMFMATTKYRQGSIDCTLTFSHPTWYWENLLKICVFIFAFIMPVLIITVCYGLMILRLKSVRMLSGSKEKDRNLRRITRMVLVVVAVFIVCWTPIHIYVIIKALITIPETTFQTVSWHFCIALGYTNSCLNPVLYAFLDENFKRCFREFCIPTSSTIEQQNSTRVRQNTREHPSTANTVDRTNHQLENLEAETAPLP
T2 sequence (P33535 whole entry): as above
hMDR-1, sequence (P08183 whole entry): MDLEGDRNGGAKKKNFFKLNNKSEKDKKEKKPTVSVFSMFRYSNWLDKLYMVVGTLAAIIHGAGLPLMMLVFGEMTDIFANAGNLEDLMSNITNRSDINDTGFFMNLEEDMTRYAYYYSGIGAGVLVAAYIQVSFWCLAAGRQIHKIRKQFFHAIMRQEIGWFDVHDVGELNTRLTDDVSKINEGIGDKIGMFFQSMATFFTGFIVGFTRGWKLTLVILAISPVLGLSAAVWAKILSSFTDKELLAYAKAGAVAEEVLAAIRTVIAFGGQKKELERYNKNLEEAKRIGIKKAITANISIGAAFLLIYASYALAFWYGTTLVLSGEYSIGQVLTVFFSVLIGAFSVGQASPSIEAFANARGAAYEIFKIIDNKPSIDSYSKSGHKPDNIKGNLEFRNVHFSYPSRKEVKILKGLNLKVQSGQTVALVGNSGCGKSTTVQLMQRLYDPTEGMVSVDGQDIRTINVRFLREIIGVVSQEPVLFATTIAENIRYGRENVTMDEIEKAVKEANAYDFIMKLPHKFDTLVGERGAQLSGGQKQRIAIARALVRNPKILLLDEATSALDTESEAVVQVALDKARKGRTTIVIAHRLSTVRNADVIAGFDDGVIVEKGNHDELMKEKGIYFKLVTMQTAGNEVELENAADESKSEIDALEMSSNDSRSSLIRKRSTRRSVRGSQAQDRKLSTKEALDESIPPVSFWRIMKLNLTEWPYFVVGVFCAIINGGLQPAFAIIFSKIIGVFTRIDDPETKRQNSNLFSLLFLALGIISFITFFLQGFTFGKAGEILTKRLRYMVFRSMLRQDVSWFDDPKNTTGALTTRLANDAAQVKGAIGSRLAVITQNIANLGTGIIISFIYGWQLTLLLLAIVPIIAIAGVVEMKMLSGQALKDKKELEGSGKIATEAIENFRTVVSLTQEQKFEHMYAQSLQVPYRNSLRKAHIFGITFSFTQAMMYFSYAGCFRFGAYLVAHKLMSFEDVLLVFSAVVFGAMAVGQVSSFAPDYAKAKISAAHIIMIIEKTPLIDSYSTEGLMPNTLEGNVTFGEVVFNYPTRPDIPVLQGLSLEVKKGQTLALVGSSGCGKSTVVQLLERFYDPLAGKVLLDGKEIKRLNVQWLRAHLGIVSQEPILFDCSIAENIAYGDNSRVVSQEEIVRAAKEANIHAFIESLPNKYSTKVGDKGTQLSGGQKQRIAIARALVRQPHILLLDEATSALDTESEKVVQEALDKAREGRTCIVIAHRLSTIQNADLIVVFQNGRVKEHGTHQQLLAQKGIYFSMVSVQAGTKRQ
T3 sequence (P97266 whole entry, looked up): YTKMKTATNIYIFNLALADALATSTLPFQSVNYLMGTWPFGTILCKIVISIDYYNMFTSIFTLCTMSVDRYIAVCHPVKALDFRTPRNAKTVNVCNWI

Compound	Ki (μ receptors [2]; [12])	Ki (δ receptors [4])	μ/δ (δ receptors [4])	MVD Ke (δ receptors [6])	Agonist K1μ/Kiδ (δ-opioid receptors [7])	Ki (μ-opioid receptors)	Antagonist K1μ/Kiδ (δ-opioid receptors [9])	further results
Cc1cc(O)cc(C)c1CC(N)C(=O)N1Cc2ccccc2CC1c1nc2ccccc2[nH]1 (stereo not drawn) [Compound 23, 2-amino-1-[3-(1H-benzoimidazole-2-yl)-3,4-dihydro-1H-isoquinoline-2-yl]-3-(4-hydroxyl-2,6-dimethylphenyl)-propane-1-one]	7.22 nM	0.13 nM	7.28	–	–	–	–	δ antagonism pA2, published data (δ receptors [1]): 7.67; increase in μ receptor affinity relative to H-Dmt-Tic-NH2 (μ receptors [2]): ~40 fold; IC50 (μ receptors [3]): 30 nM; δ binding affinity greater than H-Dmt-Tic-ol (δ receptors [4]): 3 fold; δ binding affinity higher than H-Dmt-Tic-NH2 (δ receptors [4]): 10 fold; reduction of electrical stimulation of the tissue (δ receptors [5]; high concentration (up to 1 μM)): 83%
Cc1cc(O)cc(C)c1C[C@H](N)C(=O)N1Cc2ccccc2C[C@H]1C(=O)O [H-Dmt-Tic-OH, reference compound] (H-[Dmt]-[Tic]-OH)	3320 nM	–	–	5.7 nM	150800^a	3320 ± 435 nM	–	–
Cc1cc(O)cc(C)c1C[C@H](N)C(=O)N1Cc2ccccc2C[C@H]1C(=O)NCC(=O)Nc1ccccc1 [Compound 27, H-Dmt-Tic-Gly-NH-Ph] (H-[Dmt]-[Tic]-Gly-NHPh)	0.16 nM	0.042 nM	3.6	–	–	–	–	Functional Bioactivity GPI (pEC50) (μ receptors [8]): 8.59; Ki (μ receptors [2]; Receptor affinity (nM) Kiμ): < 1 nM; EC50 (δ receptors [5]): 3.02 nM; δ activity on MVD, in words (δ receptors [5]): potent δ-agonist activity; also recorded: essentially equivalent activity as a δ agonist and a μ agonist; lower antagonist activity of N,N(Me)2-Dmt-Tic-OH against this agonist than against deltorphin C and 24 (δ receptors [5]; MVD): 5 fold; MVD, antagonist activity (pA2) N,N(CH3)2-Dmt-Tic-OH (δ receptors [5]; pA2 of N,N(CH3)2-Dmt-Tic-OH against the listed δ agonist): 9.04; MVD, antagonist activity (pA2) naloxone (δ receptors [5]; pA2 of naloxone against the listed δ agonist): 7.47
Cc1cc(O)cc(C)c1C[C@@H](C(=O)N1Cc2ccccc2C[C@H]1C(=O)O)N(C)C [N,N(Me)2-Dmt-Tic-OH, reference compound]	–	–	–	–	20636^b	2440 ± 462 nM	34785	inhibition of hMDR-1 (Pgp), in words (hMDR-1): inactive; MVD pA2 (range) (δ receptors [6]; δ antagonism against deltorphin C, mean (range)): 9.4
Cc1cc(O)cc(C)c1C[C@H](N)C(=O)N1Cc2ccccc2C[C@H]1C(N)=O [H-Dmt-Tic-NH2] (H-[Dmt]-[Tic]-NH2)	–	–	–	–	227^a	–	–	–
Cc1cc(O)cc(C)c1C[C@H](N)C(=O)N1Cc2ccccc2C[C@H]1C(=O)N[C@@H](C)C(N)=O [H-Dmt-Tic-Ala-NH2, reference compound] (H-[Dmt]-[Tic]-Ala-NH2)	47 nM	0.22 nM	195	9.0 nM	195^a	47 ± 3.4 nM	68	inhibition of hMDR-1 (Pgp), in words (hMDR-1): inactive; Ki (δ-opioid receptors [10]): 0.24 ± 0.02 nM
[^3H]N,N-(CH3)2-Dmt-Tic-OH	–	–	–	–	–	–	–	Kd (δ-opioid receptors [11]): 0.39 nM
Cc1cc(O)cc(C)c1C[C@H](N)C(=O)N1Cc2ccccc2C[C@H]1C(=O)N[C@@H](C)C(=O)O [H-Dmt-Tic-Ala-OH, reference compound] (H-[Dmt]-[Tic]-Ala-OH)	–	–	–	4.0 nM	2852^a	–	2784	–
